Source: patent publication US8193372B2, “Phosphothiophene and phosphothiazole HCV polymerase inhibitors” (Idenix Pharmaceuticals, Inc., priority 2009, dated 2012)

Legend:
[1] = Cytotoxicity (CC50) reported with the HCV replicon ELISA assay; conditions: human
[2] = system: HCV Con1 subgenomic replicon of genotype 1b (GS4.1 cells); assay: microbe, parasite or virus in culture; type: cell-based, HCV genotype 1b; conditions: Hepatitis C virus; for EC50: 72 h
[3] = in vitro; conditions: human

| Structure (SMILES) | CC50 at 72 hr [1] [µM] | IC50 [2] [nM] | EC50 [2] [µM] | CC50 [3] [µM] |
| --- | --- | --- | --- | --- |
| Cc1ccc(P(=O)(Nc2cc(-c3ccc(Cl)cc3)sc2C(=O)O)OC2CCOCC2)c(C)c1 (centres unmarked) [Compound 135] | > 8.3 | < 100 | 0.1 to 8.3 | – |
| CCOCCOP(=O)(Nc1cc(-c2ccc(Cl)cc2)sc1C(=O)O)c1ccc(C)cc1C (centres unmarked) [Compound 130] | > 8.3 | 100 to 8300 | – | – |
| Cc1ccc(P(=O)(Nc2cc(-c3ccc(Cl)cc3)sc2C(=O)O)OCC2CCOCC2)c(C)c1 (centres unmarked) [Compound 84] | > 8.3 | 100 to 8300 | 0.1 to 8.3 | – |
| Cc1ccc(P(=O)(Nc2cc(-c3ccc(Cl)cc3)sc2C(=O)O)OCC2CC2)c(C)c1 (centres unmarked) [Compound 91] | > 8.3 | 100 to 8300 | 0.1 to 8.3 | – |
| Cc1ccc(P(=O)(Nc2cc(-c3ccc(Cl)cc3)sc2C(=O)O)OCCC(C)(C)C)c(C)c1 (centres unmarked) [Compound 90] | > 8.3 | 100 to 8300 | 0.1 to 8.3 | – |
| Cc1ccc(P(=O)(Nc2cc(-c3ccc(Cl)cc3)sc2C(=O)O)OCC(C)C)c(C)c1 (centres unmarked) [Compound 86] | > 8.3 | 100 to 8300 | 0.1 to 8.3 | – |
| Cc1ccc(P(=O)(Nc2cc(-c3ccc(Cl)cc3)sc2C(=O)O)OCCC(C)C)c(C)c1 (centres unmarked) [Compound 81] | > 8.3 | 100 to 8300 | 0.1 to 8.3 | – |
| Cc1ccc(P(=O)(Nc2cc(-c3ccc(Cl)cc3)sc2C(=O)O)OCc2cc3ccccc3o2)c(C)c1 (centres unmarked) [Compound 93] | > 8.3 | 100 to 8300 | 0.1 to 8.3 | – |
| Cc1ccc(P(=O)(Nc2cc(-c3ccc(Cl)cc3)sc2C(=O)O)OC2CCOC2)c(C)c1 (centres unmarked) [Compound 94] | > 8.3 | 100 to 8300 | 0.1 to 8.3 | – |
| CCOP(=O)(Nc1cc(-c2ccc(-c3cc4ncccc4o3)cc2)sc1C(=O)O)c1ccc(Cl)cc1Cl (centres unmarked) [Compound 150] | – | < 100 | < 0.1 | > 8.3 |
| CCOP(=O)(Cc1cc(-c2ccc(F)cc2)sc1C(=O)O)c1ccc(C)cc1C (centres unmarked) [Compound 179] | – | 100 to 8300 | > 8.3 | > 8.3 |
| COP(=O)(Nc1cc(-c2ccc(-c3cc4nc(C)ccn4n3)cc2)sc1C(=O)O)c1ccc(C)cc1C (centres unmarked) [Compound 105] | – | < 100 | < 0.1 | > 8.3 |
| CCOP(=O)(Cc1cc(-c2ccc(-c3cc4ncccn4n3)cc2)sc1C(=O)O)c1ccc(C)cc1C (centres unmarked) [Compound 175] | – | < 100 | 0.1 to 8.3 | > 8.3 |
| COP(=O)(Nc1cc(-c2ccc(Cl)cc2)sc1C(=O)O)c1ccc(Cl)cc1C (centres unmarked) [Compound 134] | – | < 100 | 0.1 to 8.3 | > 8.3 |
| CCOP(=O)(Cc1cc(-c2ccccc2)sc1C(=O)O)c1ccc(C)cc1C (centres unmarked) [Compound 178] | – | 100 to 8300 | > 8.3 | > 8.3 |
| COP(=O)(Nc1cc(-c2ccc(-c3cc4ncccc4o3)cc2)sc1C(=O)O)c1ccc(Cl)cc1F (centres unmarked) [Compound 119] | – | < 100 | < 0.1 | > 8.3 |
| COP(=O)(Nc1cc(-c2ccccc2F)sc1C(=O)O)c1ccc(C)cc1C (centres unmarked) [Compound 80] | – | 100 to 8300 | > 8.3 | > 8.3 |
| CCOP(=O)(Nc1cc(-c2ccc(F)cc2)sc1C(=O)O)c1ccc(Cl)cc1Cl (centres unmarked) [Compound 23] | – | 100 to 8300 | > 8.3 | > 8.3 |
| COP(=O)(Nc1cc(I)sc1C(=O)O)c1ccc(C)cc1C (centres unmarked) [Compound 116] | – | 100 to 8300 | > 8.3 | > 8.3 |
| COP(=O)(Nc1cc(-c2ccc(-c3cc4ncccn4n3)cc2)sc1C(=O)O)c1ccc(C)cc1C (centres unmarked) [Compound 26] | – | < 100 | < 0.1 | > 8.3 |
| COP(=O)(Nc1cc(-c2ccc(-c3ccc(Cl)c(Cl)c3)cc2)sc1C(=O)O)c1ccc(C)cc1C (centres unmarked) [Compound 147] | – | 100 to 8300 | 0.1 to 8.3 | > 8.3 |
| COP(=O)(Nc1cc(-c2ccc(-c3cccc([N+](=O)[O-])c3)cc2)sc1C(=O)O)c1ccc(C)cc1C (centres unmarked) [Compound 120] | – | 100 to 8300 | > 8.3 | > 8.3 |
| COP(=O)(c1ccc(C)cc1C)N(C)c1cc(-c2ccc(Cl)cc2)sc1C(=O)O (centres unmarked) [Compound 113] | – | < 100 | 0.1 to 8.3 | > 8.3 |

| Structure (SMILES) | CC50 at 72 hr [1] [µM] | IC50 [2] [nM] | EC50 [2] [µM] | CC50 [3] [µM] |
| --- | --- | --- | --- | --- |
| CCOP(=O)(Nc1cc(-c2cc3ccccc3s2)sc1C(=O)O)c1ccc(Cl)cc1Cl (centres unmarked) [Compound 157] | – | 100 to 8300 | > 8.3 | > 8.3 |
| COP(=O)(Nc1cc(-c2cccs2)sc1C(=O)O)c1ccc(C)cc1C (centres unmarked) [Compound 98] | – | 100 to 8300 | 0.1 to 8.3 | > 8.3 |
| COP(=O)(Nc1cc(-c2cc3ccccc3s2)sc1C(=O)O)c1ccc(C)cc1C (centres unmarked) [Compound 97] | – | < 100 | 0.1 to 8.3 | > 8.3 |
| COP(=O)(Nc1cc(-c2ccc(Cl)cc2)sc1C(N)=O)c1ccc(C)cc1C (centres unmarked) [Compound 111] | – | > 8300 | > 8.3 | > 8.3 |
| COC(=O)c1sc(-c2ccc(I)cc2)cc1NP(=O)(OC)c1ccc(C)cc1C (centres unmarked) [Compound 144] | – | – | > 8.3 | > 8.3 |
| COP(=O)(Nc1cc(-c2ccccc2)sc1C(=O)O)c1ccccc1 (centres unmarked) [Compound 25, 2-Thiophenecarboxylic acid, 3-N-(phenyl-phosphonamidatemethyl ester)-5-phenyl] | – | > 8300 | > 8.3 | > 8.3 |
| COc1ccncc1-c1cc(NP(=O)(OC)c2ccc(C)cc2C)c(C(=O)O)s1 (centres unmarked) [Compound 82] | – | 100 to 8300 | 0.1 to 8.3 | > 8.3 |
| COc1ccc(-c2cc(NP(=O)(OC)c3ccc(C)cc3C)c(C(=O)O)s2)cc1 (centres unmarked) [Compound 149] | – | < 100 | 0.1 to 8.3 | > 8.3 |
| COP(=O)(Nc1cc(-c2ccc(-c3cc4ccccc4o3)cc2)sc1C(=O)O)c1ccc(C)cc1C (centres unmarked) [Compound 125] | – | < 100 | < 0.1 | > 8.3 |
| CCOC(=O)OC(C)N(c1cc(-c2ccc(Cl)cc2)sc1C(=O)OC(C)OC(=O)OC)P(=O)(OC)c1ccc(C)cc1C (centres unmarked) [Compound 108] | – | > 8300 | 0.1 to 8.3 | > 8.3 |
| COP(=O)(Nc1cc(-c2cccnc2)sc1C(=O)O)c1ccc(C)cc1C (centres unmarked) [Compound 99] | – | 100 to 8300 | > 8.3 | > 8.3 |
| COC(=O)c1sc(-c2ccc(Br)cc2)cc1NP(=O)(OC)c1ccc(C)cc1C (centres unmarked) [Compound 148] | – | > 8300 | > 8.3 | > 8.3 |
| COP(=O)(Nc1cc(-c2ccc([N+](=O)[O-])cc2)sc1C(=O)O)c1ccc(C)cc1C (centres unmarked) [Compound 127] | – | < 100 | 0.1 to 8.3 | > 8.3 |
| COP(=O)(Nc1cc(-c2ccc(Cl)cc2)sc1C(=O)O)c1ccc(Cl)cc1F (centres unmarked) [Compound 133] | – | 100 to 8300 | 0.1 to 8.3 | > 8.3 |
| COP(=O)(Nc1cc(-c2ccc(C#Cc3cscn3)cc2)sc1C(=O)O)c1ccc(C)cc1C (centres unmarked) [Compound 139] | – | < 100 | < 0.1 | > 8.3 |
| COC(=O)c1sc(-c2ccc(-c3cc4ncccn4n3)cc2)cc1NP(=O)(OC)c1ccc(C)cc1C (centres unmarked) [Compound 142] | – | – | 0.1 to 8.3 | > 8.3 |
| COc1cc(-c2ccc(-c3cc(NP(=O)(OC)c4ccc(C)cc4C)c(C(=O)O)s3)cc2)cc(OC)c1OC (centres unmarked) [Compound 123] | – | 100 to 8300 | > 8.3 | > 8.3 |
| COP(=O)(Nc1cc(-c2ccc(CC(C)C)cc2)sc1C(=O)O)c1ccc(C)cc1C (centres unmarked) [Compound 154] | – | 100 to 8300 | > 8.3 | > 8.3 |
| COP(=O)(Nc1cc(-c2ccc(Cl)cc2Cl)sc1C(=O)O)c1ccc(C)cc1C (centres unmarked) [Compound 151] | – | 100 to 8300 | > 8.3 | > 8.3 |
| COP(=O)(Cc1cc(-c2ccc(-c3cc4ncccc4o3)cc2)sc1C(=O)O)c1ccc(C)cc1C (centres unmarked) [Compound 174] | – | < 100 | < 0.1 | > 8.3 |
| COC(=O)c1sc(-c2ccc(Cl)cc2)cc1NP(=O)(OC)c1ccc(C)cc1C (centres unmarked) [Compound 140] | – | – | > 8.3 | > 8.3 |
| COP(=O)(Nc1cc(-c2ccc(-c3c(C)noc3C)cc2)sc1C(=O)O)c1ccc(C)cc1C (centres unmarked) [Compound 128] | – | 100 to 8300 | > 8.3 | > 8.3 |
